{"source": "patent US20260356803A1", "about": "“Nicotinamide derivatives” (Board of Regents, The University of Texas System, priority 2024, published 2026)", "tested_on": "resistant iHCT116 clones", "assay": "Metabolism of 9 in resistant iHCT116 clones", "format": "cell-based", "details": "parental and resistant clones", "text": "The experiments described above are consistent with the model that both 1 and 9 are converted by NAMPT and NMNAT1 into their respective MN and AD metabolites. It remains unclear, however, which of these two metabolites is contributing to toxicity. To address this question, we measured 9 metabolism, 9-MN and 9-AD levels upon treatment of the resistant clones identified through forward genetics. […] Clones 5 and 7 were resistant to 9 but had normal NAMPT and NMINAT levels.\nPrior to the experiment, cells were cultured in low-Nam DMEM for at least 1 passage (3 days) to deplete intracellular Nam. 15,000 cells were plated in a 96-well plate with 100 μL low-Nam media. At appropriate time points, 500 nM 1 or 9, or equal volume of vehicle (DMSO) were added using TECAN. 200 μL of acetonitrile with 0.1% formic acid were added to the assayed wells. For the 0-hour time point, compound or vehicle was added after the addition of acetonitrile and formic acid. Following incubation for 10 minutes at room temperature, samples were transferred to Eppendorf tubes and centrifuged at 20,000×g for 5 minutes. The supernatants were filtered through 0.2 μm PVDF filters and analyzed by LC-MS/TOF."}
{"compound": "O=C(Nc1cccs1)c1cccnc1", "note": "[Compound 9, N-(Thiophen-2-yl)nicotinamide]", "values": [{"measurement": "metabolism of 9 over time", "result": "metabolized over time"}]}
